Assay results: doi:10.1101/396440v2, “Large-scale chemical-genetics yields new Mycobacterium tuberculosis inhibitor classes” (biorxiv, 2019)

Experiments:
[1] = biological target: T1, EfpA (Mycolicibacterium smegmatis, UniProt A0QVL8); experiment: ethidium bromide efflux (fluorescence) in M. smegmatis cells; assay type: cell-based
T1 construct: gene MSMEG_2619; native efflux pump in intact M. smegmatis cells; ethidium bromide efflux read-out

[2] = biological target: Mtb's efpA homolog (Mycobacterium tuberculosis, UniProt P9WJY5); details: high-affinity interaction lost on efpA deletion
Sequence of Mtb's efpA homolog (P9WJY5 whole entry): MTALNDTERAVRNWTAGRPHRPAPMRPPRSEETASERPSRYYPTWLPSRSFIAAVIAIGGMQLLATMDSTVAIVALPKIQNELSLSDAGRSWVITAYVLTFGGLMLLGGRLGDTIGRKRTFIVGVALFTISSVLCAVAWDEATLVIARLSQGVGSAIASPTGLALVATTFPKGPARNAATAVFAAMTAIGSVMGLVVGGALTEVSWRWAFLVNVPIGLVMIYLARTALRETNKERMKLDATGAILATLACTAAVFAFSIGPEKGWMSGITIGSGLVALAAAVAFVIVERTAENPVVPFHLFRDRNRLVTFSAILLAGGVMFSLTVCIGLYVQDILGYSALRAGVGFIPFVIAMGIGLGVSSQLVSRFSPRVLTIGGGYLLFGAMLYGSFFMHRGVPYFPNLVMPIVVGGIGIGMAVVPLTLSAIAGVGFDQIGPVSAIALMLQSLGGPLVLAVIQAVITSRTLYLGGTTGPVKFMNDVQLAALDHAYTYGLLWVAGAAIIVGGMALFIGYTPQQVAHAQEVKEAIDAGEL

[3] = biological target: T2, Mtb DNA gyrase (Mycobacterium tuberculosis, UniProt P9WG45+P9WG47); experiment: DNA supercoiling/decatenation inhibition, agarose gel; assay type: biochemical
T2 construct: gene gyrA; in vitro DNA gyrase; source details in supplement
T2 sequence (P9WG45 whole entry): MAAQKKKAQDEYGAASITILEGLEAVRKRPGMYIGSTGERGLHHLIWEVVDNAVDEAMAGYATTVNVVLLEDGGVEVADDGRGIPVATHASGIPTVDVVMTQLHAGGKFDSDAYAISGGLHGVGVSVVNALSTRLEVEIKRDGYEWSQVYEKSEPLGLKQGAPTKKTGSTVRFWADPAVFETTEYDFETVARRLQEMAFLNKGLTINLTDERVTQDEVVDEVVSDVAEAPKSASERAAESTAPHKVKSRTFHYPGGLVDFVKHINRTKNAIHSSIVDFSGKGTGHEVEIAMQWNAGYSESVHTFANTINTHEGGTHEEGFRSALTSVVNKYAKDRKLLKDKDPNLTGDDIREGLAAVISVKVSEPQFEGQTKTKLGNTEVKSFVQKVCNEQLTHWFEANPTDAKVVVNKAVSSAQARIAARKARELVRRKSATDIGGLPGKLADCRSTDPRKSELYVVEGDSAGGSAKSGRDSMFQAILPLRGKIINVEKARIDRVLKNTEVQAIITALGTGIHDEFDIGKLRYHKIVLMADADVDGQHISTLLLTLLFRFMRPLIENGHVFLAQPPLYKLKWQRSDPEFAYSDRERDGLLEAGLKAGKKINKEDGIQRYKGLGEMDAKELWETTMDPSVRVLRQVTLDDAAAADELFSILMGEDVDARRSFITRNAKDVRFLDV
T2 sequence (P9WG47 2-838): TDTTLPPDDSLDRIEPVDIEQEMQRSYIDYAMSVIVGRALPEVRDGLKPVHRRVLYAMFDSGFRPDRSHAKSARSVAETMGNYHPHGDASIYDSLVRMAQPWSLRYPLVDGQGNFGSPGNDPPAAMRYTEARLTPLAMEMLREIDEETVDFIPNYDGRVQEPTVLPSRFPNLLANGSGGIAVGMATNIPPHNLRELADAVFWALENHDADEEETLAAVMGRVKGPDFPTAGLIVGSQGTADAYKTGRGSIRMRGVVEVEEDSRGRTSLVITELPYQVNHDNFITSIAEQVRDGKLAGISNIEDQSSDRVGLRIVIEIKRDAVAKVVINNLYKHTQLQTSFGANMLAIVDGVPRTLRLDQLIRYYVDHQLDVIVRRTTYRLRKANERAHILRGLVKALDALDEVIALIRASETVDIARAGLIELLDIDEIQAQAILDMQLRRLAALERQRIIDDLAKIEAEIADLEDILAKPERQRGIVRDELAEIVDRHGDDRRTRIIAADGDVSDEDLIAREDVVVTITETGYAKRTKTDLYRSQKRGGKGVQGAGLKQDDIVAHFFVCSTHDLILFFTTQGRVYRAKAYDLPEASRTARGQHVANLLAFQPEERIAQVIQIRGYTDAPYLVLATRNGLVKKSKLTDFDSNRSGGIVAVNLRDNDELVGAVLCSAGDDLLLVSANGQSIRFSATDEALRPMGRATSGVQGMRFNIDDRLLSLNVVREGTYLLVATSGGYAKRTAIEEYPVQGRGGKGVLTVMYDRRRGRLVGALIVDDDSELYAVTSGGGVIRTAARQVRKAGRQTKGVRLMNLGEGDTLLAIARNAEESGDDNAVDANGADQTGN

Structure (SMILES) | IC50 [1] [µM] | interaction with M. smegmatis efpA deletion strain complemented with Mtb efpA [2] | DNA supercoiling/decatenation inhibition, agarose gel [3]
CC(C)=CC1C(C(=O)Nc2ccc(Br)cn2)C1(C)C (mixture of isomers) [BRD-8000] | 38 | – | –
CC(C)=C[C@@H]1[C@@H](C(=O)Nc2cccc(Br)n2)C1(C)C [(R,R)-trans isomer of BRD-8000.2] | 500 | – | –
CC(C)=C[C@H]1[C@H](C(=O)Nc2cccc(Br)n2)C1(C)C [BRD-8000.2] | 15 | This highaffinity interaction is restored by episomal complementation of Mtb’s efpA homolog | –
O=C1c2ccccc2-n2c1nc1ccccc1c2=O [tryptanthrin] | – | – | we validated it to be a DNA gyrase inhibitor
